# Patent publication US9150887B2, “Ethanologenic bacteria with increased resistance to furfural” (UNIVERSITY OF FLORIDA RESEARCH FOUNDATION, INC., priority 2009, dated 2015)
# Entries after “also recorded” stand apart in the source; their conditions may differ. Where two headings read alike, the source gives them in different places.
# T1: YqhD (Escherichia coli, UniProt Q46856)
# T1 sequence (Q46856 1-387): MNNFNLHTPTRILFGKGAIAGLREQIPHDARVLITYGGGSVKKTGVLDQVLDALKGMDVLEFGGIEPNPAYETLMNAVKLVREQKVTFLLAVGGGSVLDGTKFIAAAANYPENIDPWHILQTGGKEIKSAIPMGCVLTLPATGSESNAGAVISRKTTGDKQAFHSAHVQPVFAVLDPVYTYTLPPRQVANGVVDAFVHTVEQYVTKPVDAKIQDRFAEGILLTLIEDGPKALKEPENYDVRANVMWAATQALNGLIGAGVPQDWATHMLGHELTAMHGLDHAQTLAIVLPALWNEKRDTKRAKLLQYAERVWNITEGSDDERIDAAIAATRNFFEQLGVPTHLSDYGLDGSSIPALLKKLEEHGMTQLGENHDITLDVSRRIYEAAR
# Assays:
# EMFR9 [1] = assay: Furfural toxicity (MIC) in tube cultures; type: cell-based, Escherichia coli; conditions: for MIC: other compounds of hemicellulose hydrolysates, data not shown
# Method: (§1) Cultures were inoculated to an initial density of 17 mg dcw liter^−1. Cell mass was measured after incubation at 37° C. for 24 h and 48 h.
# LY180 [2] = assay: Furfural toxicity (MIC) in tube cultures; type: cell-based, Escherichia coli; conditions: for MIC: other compounds of hemicellulose hydrolysates, data not shown
# Method: as §1
# yqhD promoter [3] = assay: Luciferase reporter activity from the yqhD promoter in LY180; type: cell-based, Escherichia coli
# Method: (§2) Cultures of E. coli carrying appropriate reporter plasmids were grown in AM1-5% xylose to OD 0.2-0.4. After addition of furfural, cells were pelleted, resuspended in Qiagen Qproteome bacterial lysis buffer, and stored at −80° C. The lysates were thawed at 37° C. for 2 minutes, and transferred to a white 96-well plate. An equal volume (50 uL) of PerkinElmer BriteLite reagent was added to each well, and the luminescence measured in a Promega Glomax 96-well luminometer.
# (§3) Plasmid pLOI4900 was constructed by transferring the firefly luciferase gene into pBAD24 (Guzman et al. 1995 J. Bacteriol. 177: 4121-4130), and then replacing the araC gene and pBAD promoter regions with a 150-bp region upstream from the yqhD gene in LY180. This putative yqhD promoter region was PCR amplified using primers PCT6 and PCT7 (Table 2).
# (§4) Cultures of E. coli carrying appropriate reporter plasmids were grown in AM1-50 g liter^−1 xylose to OD 0.4. After sampling the cultures, furfural was added, and incubation continued for 5, 15 or 30 min before sampling again. Untreated and furfural-treated cells were pelleted, resuspended in Qiagen Qproteome bacterial lysis buffer, and stored at −80° C. The lysates were thawed at 37° C. for 2 minutes, and transferred to a 96-well plate (white). An equal volume (50 μL) of PerkinElmer BriteLite reagent was added to each well. Luminescence was measured using a Promega Glomax 96-well luminometer.
# LY180 [4] = assay: 5-HMF tolerance in tube cultures with cysteine supplement; type: cell-based, Escherichia coli
# Method: Tolerance to 5-HMF was tested using 13×100 mm closed tubes containing 4 ml AM1 and 5-HMF as indicated. When appropriate, antibiotics were included for plasmid maintenance. Tubes were inoculated to an initial density of 0.05 OD550 nm. […] To examine the effects of pntAB on furan tolerance, a multiwall plate containing 400 μl of AM1 (and 5-HMF or furfural) per well was inoculated as above. OD(420-580 nm bandwidth) was measured for 72 h using a Bioscreen C growth analyzer (Oy Growth Curves, Helsinki, Finland).
# EMFR9 [5] = assay: Effect of 5-HMF on anaerobic growth and fermentation; type: cell-based, Escherichia coli
# Method: (§5) For fermentation experiments, seed cultures of LY180 and EMFR9 were grown overnight in small fermentors (37° C., 200 rpm) containing 350 ml of AM1 medium. Broth was maintained at pH 6.5 by the automatic addition of 2 N KOH. Upon reaching mid-log phase, experimental fermenters were inoculated to an initial cell density of 0.1 OD550 nm. (33 mg dry cell weight l^−1). Cell mass (OD550 nm) and furan levels were monitored at 12-h intervals as described previously (Martinez et al. 2000b Biotechnol Prog 16: 637-641).
# LY180 [6] = assay: as above; type: cell-based, Escherichia coli; conditions: 1.0 g l^−1 5-HMF; 100 g l^−1 xylose
# Method: as §5
# DkgA [7] = target: T2, DkgA (Escherichia coli, UniProt Q46857); assay: Kinetic analysis of purified His-tagged DkgA; type: biochemical; conditions: purified enzyme, with furfural; read-out: apparent Km for NADPH
# T2 construct: For-[…]; His-tag (N); made in house; host or cells: E. coli BL21 (DE3)
# T2 sequence (Q46857 whole entry): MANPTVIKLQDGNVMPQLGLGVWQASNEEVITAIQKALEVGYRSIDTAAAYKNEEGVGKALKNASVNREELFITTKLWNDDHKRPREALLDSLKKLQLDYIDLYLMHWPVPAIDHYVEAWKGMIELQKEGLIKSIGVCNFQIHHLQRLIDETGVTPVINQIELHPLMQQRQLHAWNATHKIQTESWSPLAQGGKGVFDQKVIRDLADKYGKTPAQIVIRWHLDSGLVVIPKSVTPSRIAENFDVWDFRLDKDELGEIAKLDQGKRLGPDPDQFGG
# Method: Both the yqhD and dkgA genes were cloned into a Novagen pET-15b vector and expressed as a His-tagged protein in E. coli BL21 (DE3). Cells were grown with IPTG to approximately 1.3 g dcw liter^−1, washed with 100 mM phosphate buffer, and lysed using MP Fast Prep-24 (MP Biomedical, Solon Ohio) and Lysing Matrix B. Crude extracts were passed through a 0.22 μm PVDF filter and further purified using a 1 mL HiTrap nickel column. Purified enzymes were dialyzed in 100 mM phosphate buffer using a Thermo Slide-A-Lyser and quantified using a Thermo BCA Protein Assay Kit. Purity of YqhD and DkgA were estimated to be greater than 90% by SDS-PAGE. […] Estimated sizes of the purified proteins were in agreement with predicted values of 43 kD and 31 kD, respectively. Apparent Kcat and apparent Km values were determined for both purified enzymes using NADPH and furfural.
# DkgA [8] = target: T2, DkgA; conditions: Miller et al. 2009b; read-out: apparent Km for NADPH; cited from earlier work
# YqhD [9] = target: T1, YqhD; assay: Kinetic analysis of purified His-tagged YqhD; conditions: read-out: apparent Km for NADPH; purified enzyme, with furfural
# Method: (§9) Cells were grown with IPTG to approximately 1.3 g dcw liter^−1, washed with 100 mM phosphate buffer, and lysed using MP Fast Prep-24 (MP Biomedical, Solon Ohio) and Lysing Matrix B. Crude extracts were passed through a 0.22 μm PVDF filter and further purified using a 1 mL HiTrap nickel column. Purified enzymes were dialyzed in 100 mM phosphate buffer using a Thermo Slide-A-Lyser and quantified using a Thermo BCA Protein Assay Kit. […] Apparent Kcat and apparent Km values were determined for both purified enzymes using NADPH and furfural.
# YqhD [10] = target: T1, YqhD; design: For-[…]; His-tag (N); made in house; host or cells: E. coli BL21 (DE3); conditions: Miller et al. 2009b; read-out: apparent Km for NADPH; cited from earlier work
# yqhD promoter [11] = assay: Luciferase reporter activity from the yqhD promoter in LY180ΔyqhC; type: cell-based, Escherichia coli; conditions: yqhC deletion strain with pLOI4900; furfural addition
# Method: as §2, §3
# Cultures of E. coli carrying appropriate reporter plasmids were grown in AM1-50 g liter^−1 xylose to OD 0.4. After sampling the cultures, furfural was added, and incubation continued for 5, 15 or 30 min before sampling again. Untreated and furfural-treated cells were pelleted, resuspended in Qiagen Qproteome bacterial lysis buffer, and stored at −80° C. The lysates were thawed at 37° C. for 2 minutes, and transferred to a 96-well plate (white). […] Luminescence was measured using a Promega Glomax 96-well luminometer.
# yqhD promoter [12] = assay: Luciferase reporter activity from the yqhD promoter in EMFR9; type: cell-based, Escherichia coli; conditions: EMFR9 with yqhD promoter reporter plasmid; furfural addition
# Method: as §2, §4
# yqhD promoter [13] = assay: Luciferase reporter activity from the yqhD promoter in EMFR17; type: cell-based, Escherichia coli; conditions: EMFR17 with pPyqhD-luc; furfural addition
# Method: as §2
# LY180 [14] = assay: Furfural reduction in vivo during fermentation; type: cell-based, Escherichia coli; conditions: furfural 0.5 g liter^−1
# Method: (§6) Cultures grown to a cell density of […] in fleakers containing 350 mL AM1-10% xylose medium were sampled immediately before and 15, 30, and 60 minutes after addition of furfural to 0.5 g/L. The residual furfural concentration in the culture was determined after removal of bacterial cells by centrifugation. A spectrophotometric method was used, as described previously.
# (§7) Cultures were grown to a cell density of 0.66 g dcw liter^−1 in fleakers containing 350 mL AM1-100 g liter^−1 xylose medium and sampled immediately before and 15, 30, and 60 minutes after addition of furfural (to 0.5 g liter^−1) as previously described (Miller et al. 2009 Appl. Environ. Microbiol. 75:4315-4323). Residual furfural was measured in the culture broth after centrifugation using a spectrophotometric method (Martinez et al. 2000 Biotechnol. Prog. 16: 637-641).
# LY180ΔyqhC = assay: Furfural reduction in vivo during fermentation; type: cell-based, Escherichia coli; conditions: furfural 0.5 g liter^−1
# Method: as §6, §7
# EMFR9 [15] = assay: Furfural resistance and metabolism during pH-controlled fermentation; type: cell-based, Escherichia coli
# Method: (§8) Furfural resistance was compared in small fermenters (37° C., 150 rpm, pH 6.5, 350-ml working volume) using AM1 medium (Martinez et al. 2007 Biotechnol. Lett. 29:397-404) containing 100 g liter^−1 xylose. Seed cultures were inoculated to approximately 33 mg dcw liter^−1. Samples were removed periodically to measure cell mass, ethanol, and furfural.
# LY180 [16] = assay: as above; type: cell-based, Escherichia coli
# Method: as §8
# [17] = test system: yqhC, yqhD and dkgA transcripts in LY180; assay: Microarray analysis of transcripts after furfural addition; type: cell-based, Escherichia coli; conditions: 15 min after 0.5 g liter^−1 furfural
# Method: For each strain, 4 replicate 350 ml cultures were grown to OD=[…] (0.66 g dcw liter^−1) and sampled. Furfural (0.5 g liter^−1) was added and samples were removed after 15 minutes of incubation. Culture samples were cooled in a dry ice/ethanol bath. Cells were pelleted at 4° C., resuspended in RNA Later (Qiagen), and stored at −80° C. Cell pellets from the 4 fermentors were pooled and used for RNA isolation (Qiagen RNeasy Mini Kit). RNA was treated with DNase, re-purified, and assessed for quality using an Agilent Bioanalyzer. RNA samples were submitted to Nimblegen for conversion to cDNA, labeling with Cy3, and hybridization to the E. coli K12 TI8333 microarray chip. This chip contains 385,000 60-mer probes derived from E. coli K12 strain MG1655, and has 5 replicates of each probe with an average of 18 probes per gene. Normalized expression data from Nimblegen was imported into ArrayStar (DNA Star) for analysis.
# [18] = substrate: O=Cc1ccco1; assay: cells, lysate or membranes named; conditions: other: purified enzyme, NADPH-dependent reduction
# Method: as §9
# [19] = mineral salts media with 50 g liter^−1 xylose, 48 h
# [20] = xylose-mineral salts medium with yeast extract (1.0 g liter^−1)
molecule,measurement,setting,value
COc1cc(C=O)cc(OC)c1O [syringaldehyde],MIC,EMFR9 [1],2000 µg/mL
same,MIC,LY180 [2],2000 µg/mL
CC(=O)C=O [Methylglyoxal],effect on luciferase activity,"yqhD promoter [3]; LY180(pLOI4900), 0.1 mM",increase luciferase activity
OCc1ccco1 [furfuryl alcohol],MIC,EMFR9 [1],15000 µg/mL
same,MIC,LY180 [2],15000 µg/mL
"N[C@@H](CS)C(=O)O [cysteine, L-cysteine]",restoration of growth by supplement,LY180 [4]; 100 μM cysteine with 1 g l^−1 5-HMF,completely restored
same,restoration of growth by supplement,LY180 [4]; 100 μM or 1000 μM cysteine with 2.5 g l^−1 5-HMF,not restored
same,effect of supplement on the MIC for 5-HMF,LY180 [4]; cysteine supplements,did not increase the MIC
"O=Cc1ccc(CO)o1 [5-HMF, 5-hydroxymethyl furfural]",effect on cell yield or ethanol yield,EMFR9 [5]; 1.0 g l^−1 5-HMF,no detrimental effect
same,effect on ethanol production and growth,EMFR9 [5]; 2.5 g 5-HMF l^−1,slowed
same,time to completion of ethanol production and growth,EMFR9 [5]; 2.5 g 5-HMF l^−1,96 h
same,effect on growth,LY180 [6],completely inhibited
same,effect on growth,"LY180 [4]; 1 g l^−1 5-HMF, tube cultures, 24 h",partially inhibited
NADPH,Km,DkgA [7],23 µM
same,Km,DkgA [8],23 µM
same,Km,YqhD [9],8 µM
same,Km,YqhD [10],8 µM
O=Cc1ccco1 [furfural],minimal inhibitory concentration (MIC) of furfural,EMFR9 [1]; [19],~2000 µg/mL
same,furfural MIC,EMFR9 [1]; xylose replaced with glucose,2500 µg/mL
same,furfural MIC,EMFR9 [1]; [20],2500 µg/mL
same,minimal inhibitory concentration (MIC) of furfural,LY180 [2]; [19],approximately 1.0 g liter^−1
same,furfural MIC,LY180 [2]; xylose replaced with glucose,1500 µg/mL
same,furfural MIC,LY180 [2]; [20],2000 µg/mL
same,effect on luciferase activity,"yqhD promoter [3]; LY180(pLOI4900), furfural 1 mM, 5 mM and 10 mM, evident within 5 min",dose-dependent increase in luciferase activity
same,effect on luciferase activity,"yqhD promoter [3]; LY180 carrying pPyqhD-luc, 15 minutes after addition of furfural",activity was increased
same,effect on luciferase activity,yqhD promoter [11],no furfural-dependent response was observed
same,effect on luciferase expression,yqhD promoter [12],luciferase expression was not increased; also recorded: did not increase luciferase activity
same,effect on luciferase expression,yqhD promoter [13],luciferase expression was not increased
same,in vivo rate of furfural reduction,LY180 [14],0.042±0.001 μmol min^−1 mg dcw^−1
same,in vivo rate of furfural reduction,LY180ΔyqhC,0.025±0.005 μmol min^−1 mg dcw^−1
same,time to complete reduction of furfural,EMFR9 [15]; 0.4 g liter^−1 furfural,12 h
same,time to complete reduction of furfural,EMFR9 [15]; 1.0 g liter^−1 furfural,18 h
same,effect on growth and fermentation,EMFR9 [15]; furfural 0.4 g liter^−1 or 1.0 g liter^−1,virtually unaffected
same,effect on growth and ethanol production,"LY180 [16]; 0.4 g liter^−1 furfural, 100 g liter^−1 xylose",initial lag in growth and ethanol production
same,effect on growth and ethanol production,"LY180 [16]; 1.0 liter^−1 furfural, 72-h incubation",strongly inhibited
same,"up-regulation of yqhC, yqhD and dkgA transcripts",[17],> 6 fold
YqhD (Escherichia coli K-12) (protein) MNNFNLHTPTRILFGKGAIAGLREQIPHDARVLITYGGGSVKKTGVLDQVLDALKGMDVLEFGGIEPNPAYETLMNAVKLVREQKVTFLLAVGGGSVLDGTKFIAAAANYPENIDPWHILQTGGKEIKSAIPMGCVLTLPATGSESNAGAVISRKTTGDKQAFHSAHVQPVFAVLDPVYTYTLPPRQVANGVVDAFVHTVEQYVTKPVDAKIQDRFAEGILLTLIEDGPKALKEPENYDVRANVMWAATQALNGLIGAGVPQDWATHMLGHELTAMHGLDHAQTLAIVLPALWNEKRDTKRAKLLQYAERVWNITEGSDDERIDAAIAATRNFFEQLGVPTHLSDYGLDGSSIPALLKKLEEHGMTQLGENHDITLDVSRRIYEAAR,Km,[18],9000 µM
